Test results as given in patent US8816085B2 (Takeda GmbH, priority 2009, dated 2014).

Biological target: T1, PDE5A1 (human PDE5 from platelets) (Homo sapiens, UniProt O76074)
T1 construct: from tissue; host or cells: platelets from fresh blood of human donors (10,000 g supernatant of sonified platelets)
Assay: Inhibition of type 5 phosphodiesterase (PDE5) activity, modified SPA test
Assay type: biochemical
Details: PDE5-containing human platelet lysate, 0.5 μM cGMP, value classes, read-out: PDE5A1 inhibitory values [measured as −logIC50 (mol/l)] (converted)
Protocol: Method for Measuring Inhibition of the Type 5 Phosphodiesterase (PDE5) Activity:
As a source for human PDE5, platelets are used. For that purpose, 150 ml fresh blood from human donors anticoagulated with citrate [final concentration 0.3% (w/v)] is centrifuged at 200 g for 10 min to obtain the so-called platelet-rich-plasma (PRP) as a supernatant. 1/10 volume of ACD solution (85 mM Na3-citrate, 111 mM D-glucose, 71 mM citric acid, pH 4.4) is added to 9/10 volume of PRP. After centrifugation (1,400 g, 10 min) the cell pellet is resuspended in 3 ml homogenization buffer (NaCl 140 mM, KCl 3.8 mM, EGTA (ethylene glycol tetraacetic acid) 1 mM, MgCl2 1 mM, Tris-HCl 20 mM, beta-mercaptoethanol 1 mM, pH 8.2) plus protease-inhibitor mix giving rise to the final concentrations of 0.5 mM Pefablock (Roche), 10 μM Leupeptin, 5 μM Trypsininhibitor, 2 mM Benzamidin and 10 μM Pepstatin A. The suspension is sonified and thereafter centrifuged for 15 min at 10,000 g. The resulting supernatant (platelet lysate) is used for enzymatic testings.
PDE5A1 activity is inhibited by the compounds of the present subject matter in a modified SPA (scintillation proximity assay) test, supplied by Amersham Biosciences (see procedural instructions “phosphodiesterase [3H]cAMP SPA enzyme assay, code TRKQ 7090”), carried out in 96-well microtitre plates (MTP's). The test volume is 100 μl and contains 20 mM Tris buffer (pH 7.4), 0.1 mg of BSA (bovine serum albumin)/ml, 5 mM Mg^2+, 1 μM motapizone, 10 nM PDE2 inhibitor 2-(3,4-dimethoxybenzyl)-7-[(1R,2R)-2-hydroxy-1-(2-phenylethyl)propyl]-5-methylimidazo[5,1-t][1,2,4]triazin-4(3H)-one, 0.5 μM cGMP (cyclic guanosine monophosphate) (including about 50,000 cpm of [3H]cGMP as a tracer), 1 μl of the respective compound dilution in dimethylsulfoxide (DMSO) and sufficient PDE5-containing platelet lysat (10,000×g supernatant, see above) to ensure that 10-20 wt % of the cGMP is converted under the said experimental conditions. […] After a preincubation of 5 min at 37° C., the reaction is started by adding the substrate (cGMP) and the assay is incubated for a further 15 min; after that, it is stopped by adding SPA beads (50 μl). In accordance with the manufacturer's instructions, the SPA beads had previously been resuspended in water, but are then diluted 1:3 (v/v) in water; the diluted solution also contains 3 mM 8-methoxymethyl-3-isobutyl-1-methylxanthine (IBMX) to ensure a complete PDE activity stop. After the beads have been sedimented (>30 min), the MTP's are analyzed in commercially available luminescence detection devices. The corresponding IC50 values of the compounds for the inhibition of PDE activity are determined from the concentration-effect curves by means of non-linear regression.

| SMILES | IC50 [nM] |
| --- | --- |
| COCC(=O)N[C@H]1CC[C@@H](NC(=O)c2c(C)[nH]c3c(-c4ccc(F)cc4OCC4CC4)ccnc23)CC1 [Example E18, 7-[2-(Cyclopropylmethoxy)-4-fluorophenyl]-N-{cis-4-[(methoxyacetyl)amino]cyclohexyl}-2-methyl-1H-pyrrolo[3,2-b]pyridine-3-carboxamide] | 1 to 10 |
| CCC(=O)N[C@H]1CC[C@H](NC(=O)c2c(C)[nH]c3c(-c4cc(F)ccc4OCC4CC4)ccnc23)CC1 [Example E23, 7-[2-(Cyclopropylmethoxy)-5-fluorophenyl]-2-methyl-N-[trans-4-(propanoylamino)cyclohexyl]-1H-pyrrolo[3,2-b]pyridine-3-carboxamide] | < 1 |
| CC(=O)N[C@H]1CC[C@@H](NC(=O)c2c(C)[nH]c3c(-c4cc(F)ccc4OCC4CC4)ccnc23)CC1 [Example E25, N-[cis-4-(Acetylamino)cyclohexyl]-7-[2-(cyclopropylmethoxy)-5-fluorophenyl]-2-methyl-1H-pyrrolo[3,2-b]pyridine-3-carboxamide] | 1 to 10 |
| CCC(=O)N[C@H]1CC[C@@H](NC(=O)c2c(C)[nH]c3c(-c4cc(F)ccc4OCC4CC4)ccnc23)CC1 [Example E26, 7-[2-(Cyclopropylmethoxy)-5-fluorophenyl]-2-methyl-N-[cis-4-(propanoylamino)cyclohexyl]-1H-pyrrolo[3,2-b]pyridine-3-carboxamide] | 1 to 10 |
| COCC(=O)N[C@H]1CC[C@@H](NC(=O)c2c(C)[nH]c3c(-c4cc(F)ccc4OCC4CC4)ccnc23)CC1 [Example E27, 7-[2-(Cyclopropylmethoxy)-5-fluorophenyl]-N-{cis-4-[(methoxyacetyl)amino]cyclohexyl}-2-methyl-1H-pyrrolo[3,2-b]pyridine-3-carboxamide] | 1 to 10 |
| CCC(=O)N1CCC(NC(=O)c2c(C)[nH]c3c(-c4ccc(OC)cc4OCC4CC4)ccnc23)CC1 [Example E32, 7-[2-(Cyclopropylmethoxy)-4-methoxyphenyl]-2-methyl-N-(1-propanoylpiperidin-4-yl)-1H-pyrrolo[3,2-b]pyridine-3-carboxamide] | < 1 |
| COCC(=O)N1CCC(NC(=O)c2c(C)[nH]c3c(-c4ccc(OC)cc4OCC4CC4)ccnc23)CC1 [Example E33, 7-[2-(Cyclopropylmethoxy)-4-methoxyphenyl]-N-[1-(methoxyacetyl)piperidin-4-yl]-2-methyl-1H-pyrrolo[3,2-b]pyridine-3-carboxamide] | < 1 |
| CCC(=O)N[C@H]1CC[C@H](NC(=O)c2c(C)[nH]c3c(-c4ccc(OC)cc4OCC4CC4)ccnc23)CC1 [Example E35, 7-[2-(Cyclopropylmethoxy)-4-methoxyphenyl]-2-methyl-N-[trans-4-(propanoylamino)cyclohexyl]-1H-pyrrolo[3,2-b]pyridine-3-carboxamide] | < 1 |
| COCC(=O)N[C@H]1CC[C@H](NC(=O)c2c(C)[nH]c3c(-c4ccc(OC)cc4OCC4CC4)ccnc23)CC1 [Example E36, 7-[2-(Cyclopropylmethoxy)-4-methoxyphenyl]-N-{trans-4-[(methoxyacetyl)amino]cyclohexyl}-2-methyl-1H-pyrrolo[3,2-b]pyridine-3-carboxamide] | < 1 |
| COCC(=O)N[C@H]1CC[C@@H](NC(=O)c2c(C)[nH]c3c(-c4ccc(OC)cc4OCC4CC4)ccnc23)CC1 [Example E39, 7-[2-(Cyclopropylmethoxy)-4-methoxyphenyl]-N-{cis-4-[(methoxyacetyl)amino]cyclohexyl}-2-methyl-1H-pyrrolo[3,2-b]pyridine-3-carboxamide] | 1 to 10 |

Second part, the compound after the results:

| IC50 [nM] | SMILES |
| --- | --- |
| 1 to 10 | CCC(=O)N[C@H]1CC[C@@H](NC(=O)c2c(C)[nH]c3c(-c4ccc(F)cc4OCC4CC4)ccnc23)CC1 [Example E17] |
| 1 to 10 | CC(=O)N1CCC(NC(=O)c2c(C)[nH]c3c(-c4cc(F)ccc4OCC4CC4)ccnc23)CC1 [Example E19, N-(1-Acetylpiperidin-4-yl)-7-[2-(cyclopropylmethoxy)-5-fluorophenyl]-2-methyl-1H-pyrrolo[3,2-b]pyridine-3-carboxamide] |
| < 1 | CCC(=O)N1CCC(NC(=O)c2c(C)[nH]c3c(-c4cc(F)ccc4OCC4CC4)ccnc23)CC1 [Example E20, 7-[2-(Cyclopropylmethoxy)-5-fluorophenyl]-2-methyl-N-(1-propanoylpiperidin-4-yl)-1H-pyrrolo[3,2-b]pyridine-3-carboxamide] |
| 1 to 10 | COCC(=O)N1CCC(NC(=O)c2c(C)[nH]c3c(-c4cc(F)ccc4OCC4CC4)ccnc23)CC1 [Example E21, 7-[2-(Cyclopropylmethoxy)-5-fluorophenyl]-N-[1-(methoxyacetyl)piperidin-4-yl]-2-methyl-1H-pyrrolo[3,2-b]pyridine-3-carboxamide] |
| < 1 | CC(=O)N[C@H]1CC[C@H](NC(=O)c2c(C)[nH]c3c(-c4cc(F)ccc4OCC4CC4)ccnc23)CC1 [Example E22, N-[trans-4-(Acetylamino)cyclohexyl]-7-[2-(cyclopropylmethoxy)-5-fluorophenyl]-2-methyl-1H-pyrrolo[3,2-b]pyridine-3-carboxamide] |
| < 1 | COCC(=O)N[C@H]1CC[C@H](NC(=O)c2c(C)[nH]c3c(-c4cc(F)ccc4OCC4CC4)ccnc23)CC1 [Example E24, 7-[2-(Cyclopropylmethoxy)-5-fluorophenyl]-N-{trans-4-[(methoxyacetyl)amino]cyclohexyl}-2-methyl-1H-pyrrolo[3,2-b]pyridine-3-carboxamide] |
| < 1 | COc1ccc(-c2ccnc3c(C(=O)NC4CCN(C(C)=O)CC4)c(C)[nH]c23)c(OCC2CC2)c1 [Example E31, N-(1-Acetylpiperidin-4-yl)-7-[2-(cyclopropylmethoxy)-4-methoxyphenyl]-2-methyl-1H-pyrrolo[3,2-b]pyridine-3-carboxamide] |
| < 1 | COc1ccc(-c2ccnc3c(C(=O)N[C@H]4CC[C@H](NC(C)=O)CC4)c(C)[nH]c23)c(OCC2CC2)c1 [Example E34, N-[trans-4-(Acetylamino)cyclohexyl]-7-[2-(cyclopropylmethoxy)-4-methoxyphenyl]-2-methyl-1H-pyrrolo[3,2-b]pyridine-3-carboxamide] |
| < 1 | COc1ccc(-c2ccnc3c(C(=O)N[C@H]4CC[C@@H](NC(C)=O)CC4)c(C)[nH]c23)c(OCC2CC2)c1 [Example E37, N-[cis-4-(Acetylamino)cyclohexyl]-7-[2-(cyclopropylmethoxy)-4-methoxyphenyl]-2-methyl-1H-pyrrolo[3,2-b]pyridine-3-carboxamide] |
| < 1 | CCC(=O)N[C@H]1CC[C@@H](NC(=O)c2c(C)[nH]c3c(-c4ccc(OC)cc4OCC4CC4)ccnc23)CC1 [Example E38, 7-[2-(Cyclopropylmethoxy)-4-methoxyphenyl]-2-methyl-N-[cis-4-(propanoylamino)cyclohexyl]-1H-pyrrolo[3,2-b]pyridine-3-carboxamide] |
| < 1 | COc1ccc(OCC2CC2)c(-c2ccnc3c(C(=O)NC4CCN(C(C)=O)CC4)c(C)[nH]c23)c1 [Example E40, N-(1-Acetylpiperidin-4-yl)-7-[2-(cyclopropylmethoxy)-5-methoxyphenyl]-2-methyl-1H-pyrrolo[3,2-b]pyridine-3-carboxamide] |
| < 1 | CCC(=O)N1CCC(NC(=O)c2c(C)[nH]c3c(-c4cc(OC)ccc4OCC4CC4)ccnc23)CC1 [Example E41, 7-[2-(cyclopropylmethoxy)-5-methoxyphenyl]-2-methyl-N-(1-propanoylpiperidin-4-yl)-1H-pyrrolo[3,2-b]pyridine-3-carboxamide] |
| 1 to 10 | COCC(=O)N1CCC(NC(=O)c2c(C)[nH]c3c(-c4cc(OC)ccc4OCC4CC4)ccnc23)CC1 [Example E42, 7-[2-(cyclopropylmethoxy)-5-methoxyphenyl]-N-[1-(methoxyacetyl)piperidin-4-yl]-2-methyl-1H-pyrrolo[3,2-b]pyridine-3-carboxamide] |
| < 1 | COc1ccc(OCC2CC2)c(-c2ccnc3c(C(=O)N[C@H]4CC[C@H](NC(C)=O)CC4)c(C)[nH]c23)c1 [Example E43, N-[trans-4-(Acetylamino)cyclohexyl]-7-[2-(cyclopropylmethoxy)-5-methoxyphenyl]-2-methyl-1H-pyrrolo[3,2-b]pyridine-3-carboxamide] |
